From patent publication US7456192B2, “3β-amino azabicyclooctane heteroaromatic amid derivatives preparation method and therapeutic uses thereof” (Pierre Fabre Medicament, priority 2001, dated 2008)
pKi: −log10 of the molar value. Counter-ions that a name gives are not always drawn. Like-named read-outs stand apart in the source and are kept apart here. Marks after values point to notes of the source that are not given here.

What was measured:
[1] = Cataleptic activity in rats, compound alone without methylphenidate; settings: rat, in vivo
[2] = molecular target: T1, D2 type central dopaminergic receptor (Homo sapiens, UniProt P14416); assay: biochemical
T1 sequence (P14416 whole entry): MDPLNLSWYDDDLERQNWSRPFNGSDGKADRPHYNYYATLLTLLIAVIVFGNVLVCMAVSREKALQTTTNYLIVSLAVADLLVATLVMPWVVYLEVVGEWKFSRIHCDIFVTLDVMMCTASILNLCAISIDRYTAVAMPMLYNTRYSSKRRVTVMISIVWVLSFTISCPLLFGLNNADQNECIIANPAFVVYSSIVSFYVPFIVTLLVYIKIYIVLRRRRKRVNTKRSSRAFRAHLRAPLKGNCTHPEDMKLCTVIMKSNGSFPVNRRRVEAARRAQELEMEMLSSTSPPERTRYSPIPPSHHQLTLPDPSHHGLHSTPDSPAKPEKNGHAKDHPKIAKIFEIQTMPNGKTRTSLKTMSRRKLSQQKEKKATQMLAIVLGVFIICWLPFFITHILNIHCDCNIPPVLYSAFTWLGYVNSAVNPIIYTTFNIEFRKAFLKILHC

[3] = tested on: methylphenidate-induced behavior; assay: Antagonism of methylphenidate-induced behavior in rats (chewing inhibition, normalization); format: in vivo, rat
Method: The compounds were tested in vivo (Table II) to measure their ability to antagonize methylphenidate-induced behavior in rats. […] Colpaert J. Pharmacol. Exp. Ther. 267, 181 (1993). This test characterizes the antipsychotic activity in a more in-depth manner than apomorphine effect antagonism, the test conventionally used.

catalepsy = assay: Cataleptic activity in rats, compound alone without methylphenidate; settings: rat, i.p.; 3 or 5 animals
[4] = molecular target: T1, D2 type central dopaminergic receptor; settings: radioligand 3H-YM-09151-2
[5] = Rattus norvegicus, ip, read-out: Chewing inhibition ED50
[6] = Rattus norvegicus, ip, read-out: Normalization ED50
[7] = Rattus norvegicus, po, read-out: Chewing inhibition ED50
[8] = Rattus norvegicus, po, read-out: Normalization ED50
[9] = ip, rat, i.p., 3 or 5 animals, read-out: Chewing inhibition ED50
[10] = ip, rat, i.p., 3 or 5 animals, read-out: Normalization ED50

| SMILES | ED50 ([1]; ip) | pKi [2] | ED50 [3, 5] | ED50 [3, 6] | other results |
| --- | --- | --- | --- | --- | --- |
| COc1c(C(=O)N[C@@H]2C[C@H]3CC[C@@H](C2)N3CC2CCCCC2)sc2ncccc12 [Example 10, 3-Methoxythieno[2,3-b]pyridine-2-carboxylic acid [8-cyclohexylmethyl-8-azabicyclo[3.2.1]oct-3β-yl]amide fumarate] | > 40 mg/kg | 8.59 | 1.25 mg/kg | 5 mg/kg |  |
| CSc1c(C(=O)N[C@@H]2C[C@H]3CC[C@@H](C2)N3Cc2ccc(F)cc2)sc2nccnc12 [Example 32, 3-Methylsulfanylthieno[2,3-b]pyrazine-2-carboxylic acid [8-(4-fluorobenzyl)-8-azabicyclo[3.2.1]oct-3β-yl]amide hydrochloride] |  | 9.17 |  |  | ED50 ([1]; po): 1.25 mg/kg; ED50 [3, 7]: 0.08 mg/kg; ED50 [3, 8]: 0.31 mg/kg |
| COc1c(C(=O)N[C@@H]2C[C@H]3CC[C@@H](C2)N3Cc2ccc(Cl)cc2)sc2ncccc12 [Example 8, 3-Methoxythieno[2,3-b]pyridine-2-carboxylic acid [8-(4-chlorobenzyl)-8-azabicyclo[3.2.1]oct-3β-yl]amide hydrochloride] | > 40 mg/kg | 8.76 | 0.1 mg/kg | 1.3 mg/kg |  |
| COc1c(C(=O)N[C@@H]2C[C@H]3CC[C@@H](C2)N3Cc2ccsc2)sc2ncccc12 [Example 12, 3-Methoxythieno[2,3-b]pyridine-2-carboxylic acid [8-thiophen-3-ylmethyl-8-azabicyclo[3.2.1]oct-3β-yl]amide hydrochloride] | > 40 mg/kg | 8.59 | 1.25 mg/kg | 1.25 mg/kg |  |
| COc1cccc(C(=O)N[C@@H]2C[C@H]3CC[C@@H](C2)N3Cc2ccccc2)c1OC [Tropapride, reference compound] |  |  |  |  | Catalepsy ED50 (catalepsy): 0.015^a mg/kg; D2 affinity (pKi) [4]: 10.02; Chewing inhibition ED50 ([3]; rat, i.p., 3 or 5 animals): 0.0059^a mg/kg; Normalization ED50 ([3]; rat, i.p., 3 or 5 animals): 0.017^a mg/kg |
| COc1c(C(=O)N[C@@H]2C[C@H]3CC[C@@H](C2)N3Cc2ccccc2)sc2nccnc12 [Example 27, 3-Methoxythieno[2,3-b]pyrazine-2-carboxylic acid (8-benzyl-8-azabicyclo[3.2.1]oct-3β-yl)amide hydrochloride] |  | 9.36 |  |  | ED50 ([1]; po): 9.5 mg/kg; ED50 [3, 7]: 0.27 mg/kg; ED50 [3, 8]: 0.67 mg/kg |
| O=C(CCCN1CCC(O)(c2ccc(Cl)cc2)CC1)c1ccc(F)cc1 [Haloperidol, reference compound] | 0.32 mg/kg |  |  |  | ED50 [3, 9]: 0.08 mg/kg; ED50 [3, 10]: 0.32 mg/kg |
| CCN1CCCC1CNC(=O)c1cc(S(N)(=O)=O)ccc1OC (stereo not shown) [Sulpiride, reference compound] | > 160 mg/kg |  |  |  | ED50 [3, 9]: > 40 mg/kg; ED50 [3, 10]: > 40 mg/kg |
| CSc1c(C(=O)N[C@@H]2C[C@H]3CC[C@@H](C2)N3Cc2ccccc2)sc2ncccc12 [Example 2, 3-Methylsulfanylthieno[2,3-b]pyridine-2-carboxylic acid (8-benzyl-8-azabicyclo[3.2.1]oct-3β-yl)amide hydrochloride] | 1.8 mg/kg | 9.35 | 0.08 mg/kg | 0.56 mg/kg |  |
| CSc1c(C(=O)N[C@@H]2C[C@H]3CC[C@@H](C2)N3Cc2ccc(Cl)cc2)sc2nccnc12 [Example 31, 3-Methylsulfanylthieno[2,3-b]pyrazine-2-carboxylic acid [8-(4-chlorobenzyl)-8-azabicyclo[3.2.1]oct-3β-yl]amide hydrochloride] |  | 8.69 |  |  | ED50 ([1]; po): 1.25 mg/kg; ED50 [3, 7]: 0.31 mg/kg; ED50 [3, 8]: 0.31 mg/kg |
| Cc1nc2n(c(=O)c1CCN1CCC(c3noc4cc(F)ccc34)CC1)CCCC2 [Risperidone, reference compound] |  |  | 0.25 mg/kg | 2.8 mg/kg |  |
| COc1c(C(=O)N[C@@H]2C[C@H]3CC[C@@H](C2)N3Cc2ccccc2)oc2cccnc12 [Example 4, 3-Methoxyfuro[3,2-b]pyridine-2-carboxylic acid (8-benzyl-8-azabicyclo[3.2.1]oct-3β-yl)amide dihydrochloride] | > 40 mg/kg | 8.69 | 0.12 mg/kg | 0.98 mg/kg |  |
| COc1c(C(=O)N[C@@H]2C[C@H]3CC[C@@H](C2)N3Cc2ccc(F)cc2)sc2ncccc12 [Example 11, 3-Methoxythieno[2,3-b]pyridine-2-carboxylic acid [(8-(4-fluorobenzyl)-8-azabicyclo[3.2.1]oct-3β-yl)]amide hydrochloride] | > 40 mg/kg | 9.11 | 0.08 mg/kg | 0.31 mg/kg |  |
| COc1c(C(=O)N[C@@H]2C[C@H]3CC[C@@H](C2)N3Cc2ccc(F)cc2)sc2nccnc12 [Example 29, 3-Methoxythieno[2,3-b]pyrazine-2-carboxylic acid [8-(4-fluorobenzyl)-8-azabicyclo[3.2.1]oct-3β-yl]amide hydrochloride] |  | 9.18 |  |  | ED50 ([1]; po): 5 mg/kg; ED50 [3, 7]: 0.08 mg/kg; ED50 [3, 8]: 0.32 mg/kg |
